This is an account of results in publication PMC9851200, “Multiparameter phenotypic screening for endogenous TFEB and TFE3 translocation identifies novel chemical series modulating lysosome function” (Autophagy, 2022).

Where two headings read alike, the source gives them in different places.

Common to all, as to test: biochemical
Holding throughout (type): binding

In experiment [1] the target is T1, cellular kinases of SH-SY5Y cells (Homo sapiens, UniProt O14733).
T1 construct: endogenous in cells; host or cells: SH-SY5Y
Conditions: 2µM; SH-SY5Y cells; labeling site Lys2; peptide DVKPSNILLDER
The text has this: (§1) As KINOMEscan is an in vitro assay, and as different cell types have variable kinase expression profiles we sought to determine the kinase binding profile in our SH-SY5Y TFEB-relocalization cell model. […] Bound kinases were pulled down and analyzed by mass spectrometry to determine the in situ kinase binding profile for each compound.

Experiment [2] concerns the target T2, cellular kinases of SH-SY5Y cells (Homo sapiens, UniProt O14936).
T2 construct: endogenous in cells; host or cells: SH-SY5Y
To be noted: 2µM; SH-SY5Y cells; Labeling Site Lys1; ETGQQFAVKIVDVAK; read-out: KiNativ in-cell binding, % Inhibition, CASK.
Source text: as §1

The target in experiment [3] is cellular kinases of SH-SY5Y cells (Homo sapiens, UniProt P09769). To be noted: 2µM; SH-SY5Y cells; Labeling Site Activation Loop; LIKDDEYNPCQGSKFPIK; read-out: KiNativ in-cell binding, % Inhibition, FGR.
Source text: as §1

Experiment [4] concerns the target cellular kinases of SH-SY5Y cells (Homo sapiens, UniProt P11802). Conditions: 2µM; SH-SY5Y cells; Labeling Site Lys2; DLKPENILVTSGGTVK; read-out: KiNativ in-cell binding, % Inhibition, CDK4.
Source text: as §1

Experiment [5] deals with cellular kinases of SH-SY5Y cells (Homo sapiens, UniProt P19784). Conditions: 2µM; SH-SY5Y cells; labeling site Lys2; peptide DVKPHNVMIDHQQK
cellular kinases of SH-SY5Y cells (Homo sapiens, UniProt P19784), sequence (P19784 whole entry): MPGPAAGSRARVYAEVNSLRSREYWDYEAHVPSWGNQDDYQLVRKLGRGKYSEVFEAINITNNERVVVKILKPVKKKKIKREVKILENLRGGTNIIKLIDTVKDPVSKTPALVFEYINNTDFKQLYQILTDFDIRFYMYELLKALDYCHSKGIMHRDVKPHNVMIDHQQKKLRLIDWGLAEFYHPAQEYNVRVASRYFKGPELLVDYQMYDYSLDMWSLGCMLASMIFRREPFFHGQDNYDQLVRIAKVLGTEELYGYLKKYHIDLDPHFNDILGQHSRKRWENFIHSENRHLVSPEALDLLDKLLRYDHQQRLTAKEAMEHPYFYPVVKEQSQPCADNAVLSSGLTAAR
Source text: as §1

Experiment [6] has as its target T3, cellular kinases of SH-SY5Y cells (Homo sapiens, UniProt P23458).
T3 construct: endogenous in cells; host or cells: SH-SY5Y
To be noted: 2µM, SH-SY5Y cells.
Source text: as §1

Experiment [7] addresses cellular kinases of SH-SY5Y cells (Homo sapiens, UniProt P27361). Conditions: 2µM; SH-SY5Y cells; Labeling Site Lys2; DLKPSNLLINTTCDLK; read-out: KiNativ in-cell binding, % Inhibition, MAPK3/Erk1.
Source text: as §1

Experiment [8] deals with T4, cellular kinases of SH-SY5Y cells (Homo sapiens, UniProt P48426).
T4 construct: endogenous in cells; host or cells: SH-SY5Y
To be noted: 2µM; SH-SY5Y cells; Labeling Site ATP; AKELPTLKDNDFINEGQK; read-out: KiNativ in-cell binding, % Inhibition, PIP4K2A.
Source text: as §1

For experiment [9], the target named is T5, cellular kinases of SH-SY5Y cells (Homo sapiens, UniProt P52564).
T5 sequence (P52564 1-334): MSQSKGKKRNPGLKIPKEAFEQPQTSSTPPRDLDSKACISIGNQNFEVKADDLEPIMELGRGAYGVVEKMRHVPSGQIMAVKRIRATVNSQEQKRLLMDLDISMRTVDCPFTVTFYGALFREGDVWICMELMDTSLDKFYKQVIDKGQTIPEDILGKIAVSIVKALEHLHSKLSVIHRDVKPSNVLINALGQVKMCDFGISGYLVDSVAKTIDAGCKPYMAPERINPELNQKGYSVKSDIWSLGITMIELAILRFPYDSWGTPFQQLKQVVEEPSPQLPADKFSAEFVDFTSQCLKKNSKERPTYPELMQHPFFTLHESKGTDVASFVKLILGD
To be noted: 2µM, SH-SY5Y cells; for inhibition at 2 µM: read-out: KiNativ in-cell binding, % Inhibition, MAP2K6.
Source text: as §1

Experiment [10] deals with T6, cellular kinases of SH-SY5Y cells (Homo sapiens, UniProt Q13177).
T6 construct: endogenous in cells; host or cells: SH-SY5Y
Conditions: 2µM; SH-SY5Y cells; Labeling Site Other; KNPQAVLDVLKFYDSNTVK; read-out: KiNativ in-cell binding, % Inhibition, PAK2.
Source text: as §1

Experiment [11] addresses T7, cellular kinases of SH-SY5Y cells (Homo sapiens, UniProt Q14680).
T7 construct: endogenous in cells; host or cells: SH-SY5Y
Conditions: 2µM; SH-SY5Y cells; Labeling Site Lys2; DLKPENLLFDEYHK; read-out: KiNativ in-cell binding, % Inhibition, MELK.
Source text: as §1

For experiment [12], the target named is cellular kinases of SH-SY5Y cells (Homo sapiens, UniProt Q7KZI7). To be noted: 2µM; SH-SY5Y cells; Labeling Site Lys1; EVAVKIIDKTQLNSSSLQK; read-out: KiNativ in-cell binding, % Inhibition, MARK2.
cellular kinases of SH-SY5Y cells (Homo sapiens, UniProt Q7KZI7), sequence (Q7KZI7 whole entry): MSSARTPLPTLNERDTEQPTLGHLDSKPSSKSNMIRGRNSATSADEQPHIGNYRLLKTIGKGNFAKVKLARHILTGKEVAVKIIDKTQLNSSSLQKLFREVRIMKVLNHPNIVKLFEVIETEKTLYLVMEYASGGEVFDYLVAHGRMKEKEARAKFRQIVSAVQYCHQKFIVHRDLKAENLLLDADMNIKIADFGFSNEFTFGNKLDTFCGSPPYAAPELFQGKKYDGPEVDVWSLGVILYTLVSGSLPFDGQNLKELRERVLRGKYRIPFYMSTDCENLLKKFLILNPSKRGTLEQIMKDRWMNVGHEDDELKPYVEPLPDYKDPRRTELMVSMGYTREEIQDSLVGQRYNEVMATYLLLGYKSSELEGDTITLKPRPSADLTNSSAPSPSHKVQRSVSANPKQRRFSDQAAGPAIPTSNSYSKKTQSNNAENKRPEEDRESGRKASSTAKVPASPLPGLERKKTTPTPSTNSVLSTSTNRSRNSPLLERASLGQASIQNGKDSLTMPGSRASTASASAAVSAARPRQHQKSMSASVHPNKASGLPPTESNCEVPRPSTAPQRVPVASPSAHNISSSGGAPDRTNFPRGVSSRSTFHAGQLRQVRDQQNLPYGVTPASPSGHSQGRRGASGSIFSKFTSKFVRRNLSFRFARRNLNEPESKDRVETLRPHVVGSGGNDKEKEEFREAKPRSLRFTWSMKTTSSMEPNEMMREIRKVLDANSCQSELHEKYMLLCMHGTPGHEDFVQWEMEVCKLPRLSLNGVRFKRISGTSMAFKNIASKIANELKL
Source text: as §1

The target of experiment [13] is T8, cellular kinases of SH-SY5Y cells (Homo sapiens, UniProt Q8NB16).
T8 construct: endogenous in cells; host or cells: SH-SY5Y
T8 sequence (Q8NB16 whole entry): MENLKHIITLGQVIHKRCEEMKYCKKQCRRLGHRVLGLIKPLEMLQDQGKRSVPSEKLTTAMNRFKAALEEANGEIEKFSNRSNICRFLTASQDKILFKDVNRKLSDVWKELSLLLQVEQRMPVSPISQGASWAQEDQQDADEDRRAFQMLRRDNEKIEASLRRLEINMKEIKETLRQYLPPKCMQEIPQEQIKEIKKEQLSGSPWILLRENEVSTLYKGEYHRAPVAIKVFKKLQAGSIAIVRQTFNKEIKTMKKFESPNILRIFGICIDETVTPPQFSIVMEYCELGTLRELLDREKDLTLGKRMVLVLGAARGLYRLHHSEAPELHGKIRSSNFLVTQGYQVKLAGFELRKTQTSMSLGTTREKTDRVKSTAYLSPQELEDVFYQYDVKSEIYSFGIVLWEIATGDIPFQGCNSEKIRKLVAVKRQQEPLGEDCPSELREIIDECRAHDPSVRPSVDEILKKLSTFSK
To be noted: 2µM; SH-SY5Y cells; labeling site Lys1; peptide APVAIKVFK
Source text: as §1

Experiment [14] has as its target cellular kinases of SH-SY5Y cells (Homo sapiens, UniProt Q8NEB9). Conditions: 2µM, SH-SY5Y cells.
Source text: as §1

The target of experiment [15] is cellular kinases of SH-SY5Y cells (Homo sapiens, UniProt Q99683). Conditions: 2µM; SH-SY5Y cells; Labeling Site Lys2; DIKGDNVLINTYSGVLK; read-out: KiNativ in-cell binding, % Inhibition, MAP3K5.
Source text: as §1

For experiment [16], the target named is T9, cellular kinases of SH-SY5Y cells (Homo sapiens, UniProt Q9Y6E0).
T9 construct: endogenous in cells; host or cells: SH-SY5Y
To be noted: 2µM; SH-SY5Y cells; Labeling Site Lys2; DIKAANVLLSEHGEVK; read-out: KiNativ in-cell binding, % Inhibition, STK24/MST3.
Source text: as §1

cellular kinases of SH-SY5Y cells (Homo sapiens, UniProt Q8NEB9), sequence (Q8NEB9 whole entry): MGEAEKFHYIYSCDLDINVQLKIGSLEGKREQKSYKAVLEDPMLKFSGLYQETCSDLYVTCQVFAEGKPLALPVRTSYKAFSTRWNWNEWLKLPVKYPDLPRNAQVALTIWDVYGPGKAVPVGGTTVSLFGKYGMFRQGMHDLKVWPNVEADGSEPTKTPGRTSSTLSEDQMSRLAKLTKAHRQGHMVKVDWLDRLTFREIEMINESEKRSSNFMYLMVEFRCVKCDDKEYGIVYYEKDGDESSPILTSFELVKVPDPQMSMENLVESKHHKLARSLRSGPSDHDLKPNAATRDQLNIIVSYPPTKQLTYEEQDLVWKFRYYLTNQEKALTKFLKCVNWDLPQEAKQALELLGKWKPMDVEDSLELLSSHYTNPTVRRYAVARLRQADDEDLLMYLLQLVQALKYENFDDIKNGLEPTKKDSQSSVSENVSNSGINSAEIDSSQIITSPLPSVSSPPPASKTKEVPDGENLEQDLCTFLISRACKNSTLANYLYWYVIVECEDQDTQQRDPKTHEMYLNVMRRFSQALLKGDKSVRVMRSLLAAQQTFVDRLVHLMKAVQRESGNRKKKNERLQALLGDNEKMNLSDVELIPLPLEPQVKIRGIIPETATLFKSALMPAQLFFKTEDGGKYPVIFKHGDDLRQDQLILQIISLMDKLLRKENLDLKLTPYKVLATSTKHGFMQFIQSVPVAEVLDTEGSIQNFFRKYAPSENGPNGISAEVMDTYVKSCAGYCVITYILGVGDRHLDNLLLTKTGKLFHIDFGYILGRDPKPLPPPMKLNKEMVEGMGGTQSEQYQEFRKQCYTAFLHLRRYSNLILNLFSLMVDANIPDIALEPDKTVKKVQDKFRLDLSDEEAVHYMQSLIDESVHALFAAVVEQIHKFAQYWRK
T3 sequence (P23458 whole entry): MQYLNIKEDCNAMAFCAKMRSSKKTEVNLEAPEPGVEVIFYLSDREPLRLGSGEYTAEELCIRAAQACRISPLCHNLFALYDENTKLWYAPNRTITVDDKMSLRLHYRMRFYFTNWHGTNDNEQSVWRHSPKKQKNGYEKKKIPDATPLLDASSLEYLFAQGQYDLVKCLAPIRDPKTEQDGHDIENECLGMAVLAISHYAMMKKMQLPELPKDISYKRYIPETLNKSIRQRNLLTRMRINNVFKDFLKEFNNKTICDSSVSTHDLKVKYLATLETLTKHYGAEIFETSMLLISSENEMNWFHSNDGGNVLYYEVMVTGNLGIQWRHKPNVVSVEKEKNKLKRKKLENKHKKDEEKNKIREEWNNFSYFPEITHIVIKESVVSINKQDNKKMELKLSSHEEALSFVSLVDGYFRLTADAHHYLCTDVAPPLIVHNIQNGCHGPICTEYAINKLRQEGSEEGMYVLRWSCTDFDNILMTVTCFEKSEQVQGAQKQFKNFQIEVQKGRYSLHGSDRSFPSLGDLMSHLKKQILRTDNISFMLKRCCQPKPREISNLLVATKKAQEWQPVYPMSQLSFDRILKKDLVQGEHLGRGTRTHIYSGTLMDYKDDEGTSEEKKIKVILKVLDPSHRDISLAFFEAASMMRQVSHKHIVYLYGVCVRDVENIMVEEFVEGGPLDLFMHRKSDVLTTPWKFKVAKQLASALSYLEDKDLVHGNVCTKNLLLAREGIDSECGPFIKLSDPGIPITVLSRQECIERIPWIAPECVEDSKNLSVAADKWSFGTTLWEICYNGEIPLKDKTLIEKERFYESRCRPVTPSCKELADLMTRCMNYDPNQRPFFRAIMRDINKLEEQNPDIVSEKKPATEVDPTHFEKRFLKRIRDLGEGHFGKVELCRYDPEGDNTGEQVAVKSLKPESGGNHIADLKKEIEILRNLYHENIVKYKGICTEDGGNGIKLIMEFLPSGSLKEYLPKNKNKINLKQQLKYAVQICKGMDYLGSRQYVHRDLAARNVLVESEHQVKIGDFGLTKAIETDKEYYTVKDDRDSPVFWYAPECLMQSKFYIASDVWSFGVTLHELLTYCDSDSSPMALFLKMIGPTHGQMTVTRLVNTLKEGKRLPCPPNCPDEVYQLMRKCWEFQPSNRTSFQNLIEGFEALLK
cellular kinases of SH-SY5Y cells (Homo sapiens, UniProt P27361), sequence (P27361 whole entry): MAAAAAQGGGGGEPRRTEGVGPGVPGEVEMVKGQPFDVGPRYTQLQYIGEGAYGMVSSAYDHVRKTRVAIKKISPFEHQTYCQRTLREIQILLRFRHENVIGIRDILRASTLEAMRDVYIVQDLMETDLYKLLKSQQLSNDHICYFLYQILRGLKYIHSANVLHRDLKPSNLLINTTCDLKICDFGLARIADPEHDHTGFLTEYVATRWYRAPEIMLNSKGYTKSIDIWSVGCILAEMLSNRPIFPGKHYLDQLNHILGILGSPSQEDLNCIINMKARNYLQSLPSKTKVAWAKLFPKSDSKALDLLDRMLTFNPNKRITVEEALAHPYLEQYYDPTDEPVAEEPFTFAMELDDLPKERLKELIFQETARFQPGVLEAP
T7 sequence (Q14680 whole entry): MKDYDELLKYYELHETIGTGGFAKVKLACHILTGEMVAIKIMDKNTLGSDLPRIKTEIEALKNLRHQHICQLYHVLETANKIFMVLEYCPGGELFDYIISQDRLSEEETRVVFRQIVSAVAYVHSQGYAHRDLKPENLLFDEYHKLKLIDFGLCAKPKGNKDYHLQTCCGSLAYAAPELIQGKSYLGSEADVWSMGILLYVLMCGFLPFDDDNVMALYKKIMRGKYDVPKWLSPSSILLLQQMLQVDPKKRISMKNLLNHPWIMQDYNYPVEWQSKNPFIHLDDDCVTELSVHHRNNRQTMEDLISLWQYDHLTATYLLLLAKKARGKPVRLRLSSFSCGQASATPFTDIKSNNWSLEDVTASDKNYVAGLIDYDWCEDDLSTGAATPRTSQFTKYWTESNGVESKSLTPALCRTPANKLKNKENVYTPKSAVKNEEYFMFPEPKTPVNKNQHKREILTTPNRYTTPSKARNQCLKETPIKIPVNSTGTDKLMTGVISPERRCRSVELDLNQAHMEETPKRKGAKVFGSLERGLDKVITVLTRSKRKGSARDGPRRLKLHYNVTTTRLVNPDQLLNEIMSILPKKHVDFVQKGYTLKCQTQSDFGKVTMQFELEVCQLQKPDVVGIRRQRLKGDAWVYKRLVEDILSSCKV
cellular kinases of SH-SY5Y cells (Homo sapiens, UniProt P11802), sequence (P11802 whole entry): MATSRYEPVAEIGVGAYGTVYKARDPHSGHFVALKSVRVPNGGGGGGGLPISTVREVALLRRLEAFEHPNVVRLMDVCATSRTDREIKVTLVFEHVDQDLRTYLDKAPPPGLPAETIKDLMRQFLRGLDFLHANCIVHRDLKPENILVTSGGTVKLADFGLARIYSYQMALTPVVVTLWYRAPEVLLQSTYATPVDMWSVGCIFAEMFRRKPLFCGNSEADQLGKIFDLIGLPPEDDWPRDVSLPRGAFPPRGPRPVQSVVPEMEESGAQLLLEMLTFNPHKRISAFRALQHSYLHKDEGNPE

For `Cc1cccc(-c2nc(Nc3ccc4ncsc4c3)c3ccccc3n2)n1` [NK140], the “KiNativ in-cell binding, MAP2K7” value in experiment [1] is recorded as -84.9. In addition, the inhibition at 2 µM was 43% in experiment [2]; 20.4% in experiment [3]; -19.8% in [4]; 2.4% in experiment [6] (Labeling Site Lys1, YDPEGDNTGEQVAVKSLKPESGGNHIADLKK, read-out: KiNativ in-cell binding, % Inhibition, JAK1 domain2); 32.4% in [7]; 29.7% in experiment [8]. For the same molecule, the inhibition at 2 µM was -15.9% in [9] (Labeling Site Activation Loop, MCDFGISGYLVDSVAKTIDAGCKPYMAPER); 15.4% in [9] (Labeling Site Lys1, HVPSGQIMAVKR); 42.4% in [10]; -40.7% in experiment [11]; 10.5% in experiment [12]; -69% in [14] (Labeling Site ATP, TEDGGKYPVIFKHGDDLRQDQLILQIISLMDK, read-out: KiNativ in-cell binding, % Inhibition, PIK3C3). The values for the inhibition at 2 µM in [15] and in [16] were 18.7% and 28.7%, respectively. For the same molecule, the “KiNativ in-cell binding, CSNK2A2” value in experiment [5] is listed as -67.6. The “KiNativ in-cell binding, JAK1 domain2” value in experiment [6] (labeling site Activation Loop, peptide IGDFGLTKAIETDKEYYTVK) is given as -56.1. Also, in experiment [9] (labeling site Lys2, peptide DVKPSNVLINALGQVK), the “KiNativ in-cell binding, MAP2K6” value stood at 17.8. In addition, in experiment [13], the “KiNativ in-cell binding, MLKL” value is given as -57.5. Besides, the “KiNativ in-cell binding, PIK3C3” value in experiment [14] (labeling site ATP, peptide TEDGGKYPVIFKHGDDLR) was -30.4.
